The nature of data set [1]: in vivo. Particulars: dog, po. The source says: The following materials and methods were used for quantitative measurements of GLP-1 peptide analogs in plasma (e.g., rat or dog plasma) in the Examples below. These methods used a SCIEX 6600 TripleTOF mass spectrometer coupled with a Shimadzu ultra-high performance liquid chromatography (UHPLC). The specificity of the method was ensured by the retention time, the selected mass for Single-Reaction-Monitoring (SRM) mode, and the selected fragment mass in MS/MS (MS^2) mode. […] The analytes of interest were analyzed from plasma, a complex biological matrix. Although protein precipitation using organic solvent can reduce matrix interference, significant background still persists. The high mass accuracy offered by the TripleTOF mass spectrometers further eliminated background noise, thus enhancing signal: noise (S/N) and allowing improved quantification.
The plasma extraction procedure used the following steps: • Samples, standards, and quality controls were incubated until they reached room temperature. They were then incubated at 60° C. for 2 minutes and cooled down to room temperature, vortexed, and spun down. • 70 μL of samples, standards, or quality controls were transferred into a 1 mL 96-well plate. • In each well, 420 uL of Precipitation Solution was added. The plate was sealed and shook for 10 minutes on a plate shaker at 600 rpm. • The plate was centrifuged at 18G, 2500 RFC, 20° C. for 10 minutes. • The plate was carefully removed, and the upper clear supernatant was extracted with a 200 uL multichannel pipette into a new 96-well protein lobind plate. The supernatant was extracted twice for each well, and the supernatants were combined. • The Plate was placed in TurboVap and the extracted supernatant was dried completely with heated (65° C.) Nitrogen gas at 60 Fahrenheit (Fh). • After the plate was completely dry, the plates were covered and incubated at room temperature for at least 30 minutes until the plate returned back to ambient temperature. • 150 μL of Reconstitution solution was added to each well. The plate was covered with a pierceable place seal and shaken at 600 rpm for 10 minutes. • The samples were submitted to the LC-MS/MS on the same day of Preparation
Quantification of the data obtained using the high resolution SCIEX 6600 instrument was then performed as follows: • For the quantification, extracted ion chromatograms (XIC) using 0.2 Da m/z extraction window centered on the accurate mass of each fragment ion were generated. Accurate mass was calculated from the structure of the compound. […] Concentrations of the target analyte in unknown samples were obtained by regression analysis using linear fits of peak areas vs. analyte concentration, weighted 1/(concentration). • The quality of the assay was controlled by the quality control samples. • Either Experiment 1 or Experiment 2 could be used for the quantification of the GLP-1 peptide analogs in high resolution mode.
MEDI7219 (SEQ ID NO:2) formulations were studied in the following canine study, which was designed to compare different tablet delivery systems and peptides in enterically coated tablet formulation compositions delivered orally. […]
The efficacy of sodium caprate as a permeation enhancer was also evaluated.

Data set [2] relates to Gastrointestinal (GI) tract tissues. The data set can be described thus: Microscopic evaluation of gastrointestinal tract tissues after intraduodenal dosing (Example 4). It counts as in vivo. As to conditions: rat, following administration of 50 mg/kg sodium caprate.
Data set [3] can be described thus: physchem. An excerpt: A known amount of the permeation enhancer, the peptide, or both were combined with increasing amounts of buffer until the permeation enhancer and/or the peptide were completely solubilized.
Data set [4] concerns Caco-2 cells. The data set can be described thus: Caco-2 study, Permeability (%) of lipidated peptides (Example 3). The class given is in vitro ADME, human. Particulars: 0.1 mg/mL peptide. The source says:
The Caco-2 cell line is a continuous cell line of heterogeneous human epithelial colorectal adenocarcinoma cells, which when cultured under specific conditions, become differentiated and polarized such that their phenotype, morphologically and functionally, resembles the enterocytes lining the small intestine. Caco-2 cells express tight junctions, microvilli, and a number of enzymes and transporters that are characteristic of such enterocytes. Caco-2 cells are most commonly used as a tight junction monolayer that provides a physical and biochemical barrier to the passage of drugs and thus serves as an in vitro model of the human small intestinal mucosa to predict the absorption of orally administered drugs. Caco-2 permeability assays were performed by Cyprotex US, LLC (MA, USA) to assess the efficacy of different permeation enhancers. Caco-2 cells were grown on Transwell filters until a transepithelial electric resistance of ˜1000 ohms/cm^2 was achieved. The cells were incubated for three hours with media containing test samples on the apical (top) side of the cell layer, and with blank media on the basolateral (lower) side of the cell layer. Media from the apical and basolateral sides was collected separately after three hours and evaluated for the amount of peptide present on each side. Table 2 gives the permeability coefficient (Papp) of the various test samples, which include the SEQ ID NO:3 GLP-1 peptide in the presence of different excipients.
A following Caco-2 study was performed to evaluate the permeability of different peptides in the presence of various permeation enhancers. Permeability (%) was calculated by dividing the cumulative amount of molecules transported with the original loading amount. Concentrations of peptides in starting sample and apical and basal solutions after incubation for pre-determined periods were analyzed by HPLC. Sodium chenodeoxycholate at 25 mg/mL effected the highest permeability of each tested peptide (Table 4).

Data set [5] is described as follows: Third rat ID infusion study, stabilized peptides vs semaglutide (Example 6). As to conditions: in vivo. Here is the method:
The third rat ID infusion study was performed to compare bioavailability of stabilized peptides MEDI7219 (SEQ ID NO:2) and SEQ ID NO:6 with that of semaglutide, H-His-Aib-[…]AEEAc-AEEAc-γ-Glu-17-carboxyheptadecanoyl)-[…]OH (SEQ ID NO:11), (Novo Nordisk), an un-stabilized GLP-1 peptide analog, that only has Aib in its sequence for protection from circulating DPP-IV peptidases, (Table 7 and FIG. 2B).

Data set [6] in a line: Canine tablet site of absorption study, SEQ ID NO:6 tablets in acid-resistant capsules or IntelliCap (Example 12). The class given is in vivo. Particulars: dog; for Tmax / half-life / AUC(0-t) / Cmax: in vivo; for bioavailability: plasma. As for the experimental part:
A third site of absorption study was performed to evaluate the absorption sites and tablet formulations in acid-resistant capsules in canines. The tablet manufacturing process was as follows: All ingredients were passed through a US sieve #35 (0.5 mm opening), and the resultant powder was compacted using a pellet press. Compacted material was again passed through a US sieve #35 (0.5 mm opening) to form granules. […] Tablets in this study were either placed in acid-resistant capsules (Table 18, Groups 1 and 2) or in IntelliCap® (Table 18, Groups 3 and 4).

Setting [7] is: canine, Intravenous, 0.031 mg/kg, 0.031 mg/mL peptide in Tris Mannitol, pH 8.0.
The mark [8] stands for this setting: canine, Oral IntelliCap released in proximal colon, 0.96 mg/kg, 10 mg peptide, 100 mg Na CDC, 50 mg PG tablet.
Where [9] appears, read: canine, Oral, 0.54 mg/kg, 5 mg peptide, 100 mg Na CDC, 50 mg PG tablet in Acid-resistant capsule.
[10] abbreviates: canine, Oral, 1.08 mg/kg, 10 mg peptide, 100 mg Na CDC, 50 mg PG tablet in Acid-resistant capsule.

Values after ≈ are worked out from the molar mass of the structure shown. Starred links: 1 amine or outer side, 2 acyl side, 3 side chain; linkers in the order of their positions; H or OH if unused. Non-standard residues stand in square brackets, D forms with d. Residues, ends and D or L forms follow the SMILES beside them. Groups on a side chain read outwards from the residue. ξ: configuration not given here. *: point of attachment. γGlu = O=C(O)[C@H](CCC(=O)[*:2])N[*:1]; Palmitoyl = CCCCCCCCCCCCCCCC(=O)*; ξαMeF = CC(N)(Cc1ccccc1)C(=O)O; Lauroyl = CCCCCCCCCCCC(=O)*; ξαMeK = CC(N)(CCCCN)C(=O)O; ξαMeS = CC(N)(CO)C(=O)O; AEEA = NCCOCCOCC(=O)O; Aib = CC(C)(N)C(=O)O

The results in this text go back to patent publication US11173124B2, “Oral delivery of GLP-1 peptide analogs” (MEDIMMUNE LIMITED, priority 2017, dated 2021).

Regarding `CCCCCCCCCCCCCCCC(=O)N[C@@H](CCC(=O)NCCOCCOCC(=O)NCCOCCOCC(=O)NCCCC[C@H](NC(=O)[C@H](C)NC(=O)[C@@H](NC(=O)C(C)(Cc1ccccc1)NC(=O)[C@H](CCC(=O)O)NC(=O)C(C)(CCCCN)NC(=O)[C@H](C)NC(=O)[C@H](C)NC(=O)[C@H](CCC(=O)O)NC(=O)CNC(=O)[C@H](CCC(=O)O)NC(=O)[C@H](CC(C)C)NC(=O)[C@H](CCCCNC(=O)COCCOCCNC(=O)COCCOCCNC(=O)CC[C@H](NC(=O)CCCCCCCCCCCCCCC)C(=O)O)NC(=O)[C@H](CO)NC(=O)C(C)(CO)NC(=O)[C@@H](NC(=O)[C@H](CC(=O)O)NC(=O)[C@H](CO)NC(=O)[C@@H](NC(=O)C(C)(Cc1ccccc1)NC(=O)[C@H](CO)NC(=O)CNC(=O)[C@H](CCC(=O)O)NC(=O)C(C)(C)NC(=O)[C@@H](N)Cc1c[nH]cn1)[C@@H](C)O)C(C)C)[C@@H](C)CC)C(=O)N[C@H](C(=O)N[C@H](C(=O)N[C@@H](CCC(=O)O)C(=O)NCC(=O)NCC(N)=O)C(C)C)C(C)C)C(=O)O` (stereo partly drawn) [SEQ ID NO: 10, Free-H-[AIB]-EGS-[αMePhe]-TSDV-[αMeSer]-SK[(PEG2)2-γE-Palmitoyl]-LEGEAA-[αMeLys]-E-[αMePhe]-IAK[(PEG2)2-γE-Palmitoyl]-VVEGG-amide] (H-H[Aib]EGS[ξαMeF]TSDV[ξαMeS]SK([AEEA-AEEA-γGlu-Palmitoyl])LEGEAA[ξαMeK]E[ξαMeF]IAK([AEEA-AEEA-γGlu-Palmitoyl])VVEGG-NH2), in data set [1], the AUC is 23700 ng·h/mL, the PK variability worked out at 52.3% and the half-life is 33 h.

As for `CCCCCCCCCC(=O)[O-].[Na+]` [sodium caprate], the “Gastrointestinal (GI) tract tissues upon microscopic evaluation” value in data set [2] is “looked normal”.

As for `CCCOC(=O)c1cc(O)c(O)c(O)c1` [Propyl Gallate], the solubility was 3000 µg/mL (≈ 14.1 mM) in data set [3] (pH 5, aqueous buffer, thermodynamic from solid); 3000 µg/mL (≈ 14.1 mM) in data set [3] (pH 6, aqueous buffer, thermodynamic from solid); 3300 µg/mL (≈ 15.6 mM) in data set [3] (pH 7); < 250 µg/mL in data set [3] (pH 7.5, aqueous buffer, thermodynamic from solid); < 250 µg/mL in data set [3] (pH 8, aqueous buffer, thermodynamic from solid); < 250 µg/mL in data set [3] (pH 9, aqueous buffer, thermodynamic from solid). Besides, in data set [3] (pH 7.5), the “solubility as a function of pH (in words)” value was “low solubility at pH 7.5 and above”.

Consider `CCCCCCCCCCCC(=O)N[C@@H](CCC(=O)NCCOCCOCC(=O)NCCOCCOCC(=O)NCCCC[C@H](NC(=O)[C@H](C)NC(=O)[C@@H](NC(=O)[C@H](Cc1ccccc1)NC(=O)[C@H](CCC(=O)O)NC(=O)C(C)(CCCCN)NC(=O)[C@H](C)NC(=O)[C@H](C)NC(=O)[C@H](CCC(=O)O)NC(=O)CNC(=O)[C@H](CCC(=O)O)NC(=O)[C@H](CC(C)C)NC(=O)[C@H](CCCCNC(=O)COCCOCCNC(=O)COCCOCCNC(=O)CC[C@H](NC(=O)CCCCCCCCCCC)C(=O)O)NC(=O)[C@H](CO)NC(=O)C(C)(CO)NC(=O)[C@@H](NC(=O)[C@H](CC(=O)O)NC(=O)[C@H](CO)NC(=O)[C@@H](NC(=O)C(C)(Cc1ccccc1)NC(=O)[C@H](CO)NC(=O)CNC(=O)[C@H](CCC(=O)O)NC(=O)C(C)(C)NC(=O)[C@@H](N)Cc1c[nH]cn1)[C@@H](C)O)C(C)C)[C@@H](C)CC)C(=O)N[C@H](C(=O)N[C@H](C(=O)N[C@@H](CCC(=O)O)C(=O)NCC(=O)NCC(N)=O)C(C)C)C(C)C)C(=O)O` (stereo partly drawn) [SEQ ID NO: 6, Free-H-[AIB]-EGS-[αMePhe]-TSDV-[αMeSer]-SK[(PEG2)2-γE-Lauroyl]-LEGEAA-[αMeLys]-EFIAK[(PEG2)2-γE-Lauroyl]-VVEGG-amide] (H-H[Aib]EGS[ξαMeF]TSDV[ξαMeS]SK([AEEA-AEEA-γGlu-Lauroyl])LEGEAA[ξαMeK]EFIAK([AEEA-AEEA-γGlu-Lauroyl])VVEGG-NH2), for which the “Permeability (%)” value in data set [4] (5.0 mg/mL Sodium Chenodeoxycholate) is given as 1.21%; in data set [4] (25 mg/mL Sodium Chenodeoxycholate), 13.3%. Also, the F result was “significantly higher absolute bioavailability via ID route than semaglutide” in data set [5] and 100% in data set [5] (iv, 0.01 mg/kg). The half-life is 9 h in data set [5]; 9.2 h in data set [5] (iv, 0.01 mg/kg); 6.76 h in data set [6] (po, […]); 7.21 h in data set [6] (setting [7]); 5.37 h in data set [6] (setting [8]); 6.99 h in data set [6] (setting [9]). Moreover, in data set [6] (setting [10]), the half-life was 6.31 h. The bioavailability in data set [5] (1 mg/kg) is 1.2%; in data set [6] (po, […]), 2.46%; in data set [6] (setting [8]), 2.79%; in data set [6] (setting [9]), 1.3%; in data set [6] (setting [10]), 3.63%. Also, the AUC in data set [5] (iv, 0.01 mg/kg) is 1080 ng·h/mL. In addition, the Cmax was 211 ng/mL in data set [5] (iv, 0.01 mg/kg); 27.3 ng/mL in data set [6] (setting [7]); 210 ng/mL in data set [6] (setting [8]); 47.3 ng/mL in data set [6] (setting [9]); 279 ng/mL in data set [6] (setting [10]). In addition, the time to peak (Tmax) in data set [6] (po, […]) was 0.857 h; in data set [6] (setting [7]), 0.444 h; in data set [6] (setting [8]), 2.14 h; in data set [6] (setting [9]), 1.64 h; in data set [6] (setting [10]), 1.79 h. The AUC(0-t) in data set [6] (setting [7]) came out at 147 ± 19.9 ng·h/mL; in data set [6] (setting [8]) it was 1490 ng·h/mL; in data set [6] (setting [9]) it was 325 ± 467 ng·h/mL; in data set [6] (setting [10]) it was 1970 ng·h/mL.
